# Results published in patent US7094909B2, “HIV protease inhibitors, compositions containing the same, their pharmaceutical uses and materials for their synthesis” (priority 2001, dated 2006).
# Where two headings read alike, the source gives them in different places.
# What was measured:
# [1] = target: T1, HIV-1 protease (Q7S mutant form) (Human immunodeficiency virus type 1 group M subtype B, UniProt P04585, Q495S); test: HIV-1 Protease RET assay; type: biochemical
# T1 construct: made in house
# Procedure, shortened: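 Q7S HIV-1 protease, refolded from urea, 2 nM active dimer with 5 μM EDANS/DABCYL peptide cleaved at Tyr-Pro; fluorescence 340/490 nm. 12 min at 37 °C in 0.1M sodium acetate pH 4.8, 1M NaCl, 10% DMSO. Ki from Morrison tight-binding fit.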
# [2] = system: HIV-1 (HIV-1 RF, HIV-1 NL4-3) in CEM-SS / MT-2 cells; test: Cytopathic effect (CPE) inhibition assay (XTT/MTT dye reduction); type: cell-based
# Procedure, shortened: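 CEM-SS or MT-2 cells were infected with HIV-1 RF or NL4-3 (moi 0.025–0.819) and plated at 2×10^4 cells/well with half-log compound dilutions for 6 days. Viability was read by XTT formazan at 450 nm after 4 h. EC50 restores formazan to 50% of uninfected untreated cells, CC50 halves it in uninfected cells, and TI = CC50/EC50.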
# [3] = Human immunodeficiency virus 1, NL43, unit inferred, read-out: EC50
# [4] = Ave. Ki (nM), RET assay, Q7S enzyme, Morrison tight binding fit
# [5] = Human immunodeficiency virus 1, NL43, read-out: Ave CPE EC50
Compound,"Ki ([1]; Ki, unit inferred)","EC50 [2, 3]","Ki [1, 4]","EC50 [2, 5]"
CC1(C)SCN(C(=O)[C@@H](O)[C@H](Cc2ccccc2)NC(=O)[C@@H]2CCCO2)[C@@H]1C(=O)N[C@H]1CCCc2ccccc21,4.3 nM,1190 nM,–,–
"C#CCNC(=O)[C@H]1N(C(=O)[C@@H](O)[C@H](Cc2ccccc2)NC(=O)COc2c(C)cccc2C)CSC1(C)C [Example B36, (R)-3-{(2S,3S)-3-[2-(2,6-Dimethyl-phenoxy)-ethanoylamino]-2-hydroxy-4-phenyl-butanoyl}-5,5-dimethyl-thiazolidine-4-carboxylic acid prop-2-ynylamide]",–,–,< 0.1 nM,519 nM
"C=CCNC(=O)[C@H]1N(C(=O)[C@@H](O)[C@H](Cc2ccccc2)NC(=O)O[C@H]2CCOC2)CSC1(C)C [Example B22, [(1S,2S)-3-((R)-4-Allylcarbamoyl-5,5-dimethyl-thiazolidin-3-yl)-1-benzyl-2-hydroxy-3-oxo-propyl]-carbamic acid (S)-(tetrahydro-furan-3-yl) ester]",–,–,12 nM,246 nM
"Cc1ccccc1CNC(=O)[C@@H]1C2CCC(C2)N1C(=O)[C@@H](O)[C@H](Cc1ccccc1)NC(=O)c1cccc(O)c1C (some centres unmarked) [Example C50, 2-(2-Hydroxy-3-{[1-(-hydroxy-2-methyl-phenyl)-methanoyl]-amino}-4-phenyl-butanoyl)-2-aza-bicyclo[2.2.1]-heptane-3-carboxylic acid-2-methyl-benzylamide]",–,–,7.9 nM,997 nM
"Cc1ccccc1CNC(=O)[C@H]1N(C(=O)[C@@H](O)[C@H](Cc2ccccc2)NC(=O)c2cccc3[nH]ncc23)CSC1(C)C [Example B9, 1H -Indazle-4-carboxylic acid {1-benzyl-3-[5,5-dimethyl-4-(2-methyl-benzylcarbamoyl)-thiazolidin-3-yl]-2-hydroxy-3-oxo-propyl}-amide]",–,–,1.1 nM,452 nM
"Cc1c(O)cccc1C(=O)N[C@@H](Cc1ccccc1)[C@H](O)C(=O)N1CC(F)(F)C[C@H]1C(=O)NCc1ccc2c(c1)OCO2 [Example C11, 4,4-Difluoro-1-[2-hydroxy-3-(3-hydroxy-2-methyl-benzoylamino)-4-phenyl-butyryl]-pyrrolidine-2-carboxylic acid (benzo[1,3]dioxol-5-ylmethyl)-amide]",–,–,2.8 nM,1310 nM
Cc1ccccc1CNC(=O)[C@H]1N(C(=O)[C@@H](O)[C@H](Cc2ccccc2)NC(=O)COc2c(C)cc(Cl)cc2C)CSC1(C)C,0.38 nM,1110 nM,–,–
Cc1cccc(C)c1OCC(=O)N[C@@H](Cc1ccccc1)[C@H](O)C(=O)N1CSC(C)(C)[C@H]1C(=O)NC[C@H]1CCCO1,4.2 nM,≥ 1000 nM,–,–
"Cc1c(O)cccc1C(=O)N[C@@H](Cc1ccccc1)[C@H](O)C(=O)N1CSC(C)(C)[C@H]1C(=O)NCc1cccc2ccccc12 [Example A11, (R)-3-((2S,3S)-2-Hydroxy-3-{[1-(3-hydroxy-2-methyl-phenyl)-methanoyl]-amino}-4-phenyl-butanoyl)-5,5-dimethyl-thiazolidine-4-carboxylic acid (naphthalen-1-ylmethyl)-amide]",–,–,0.5 nM,144 nM
"Cc1c(O)cccc1C(=O)N[C@@H](Cc1ccccc1)[C@H](O)C(=O)N1CSC(C)(C)[C@H]1C(=O)NC1CC1c1ccccc1 (mixture of isomers) [Example A28, (R)-3-((2S,3S)-2-Hydroxy-3-{[1-(3-hydroxy-2-methyl-phenyl)-methanoyl]-amino}-4-phenyl-butanoyl)-5,5-dimethyl-thiazolidine-4-carboxylic acid (2-phenyl-cyclopropyl)-amide]",–,–,3.4 nM,327 nM
"Cc1c(O)cccc1C(=O)N[C@@H](Cc1ccccc1)[C@H](O)C(=O)N1CSC(C)(C)[C@H]1C(=O)NCc1oc2ccccc2c1C [Example A54, (R)-3-[(2S,3S)-2-Hydroxy-3-(3-hydroxy-2-methyl-benzoylamino)-4-phenyl-butyryl]-5,5-dimethyl-thiazolidine-4-carboxylic acid (3-methyl-benzofuran-2-ylmethyl)-amide]",–,–,4.5 nM,1230 nM
"Cc1c(O)cccc1C(=O)N[C@@H](Cc1ccccc1)[C@H](O)C(=O)N1CSC(C)(C)[C@H]1C(=O)NC1CC1 [Example A25, (R)-3-((2S,3S)-2-Hydroxy-3-{[1-(3-hydroxy-2-methyl-phenyl)-methanoyl]-amino}-4-phenyl-butanoyl)-5,5-dimethyl-thiazolidine-4-carboxylic acid cyclopropylamide]",–,–,0.97 nM,125 nM
Cc1ccccc1CNC(=O)[C@@H]1CCCCN1C(=O)[C@@H](O)[C@H](Cc1ccccc1)NC(=O)c1cccc(O)c1C,51.7 nM,5870 nM,–,–
"CC1(C)SCN(C(=O)[C@@H](O)[C@H](Cc2ccccc2)NC(=O)c2cccc3c2CCN3)[C@@H]1C(=O)NC[C@H]1CCCO1 [Example B44, 2,3-Dihydro-1H-indole-4-carboxylic acid [(1S,2S)-1-benzyl-3-((R)-5,5-dimethyl-4-{[(R)-1-(tetrahydro-furan-2-yl)methyl]-carbamoyl}-thiazolidin-3-yl)-2-hydroxy-3-oxo-propyl]-amide]",–,–,4.8 nM,660 nM
"Cc1ccccc1CNC(=O)[C@H]1N(C(=O)[C@@H](O)[C@H](Cc2ccccc2)NC(=O)COc2c(C)cccc2C)CC(F)(F)C1(C)C [Example C46, (S)-1-{(2S,3S)-3-[2-(2,6-Dimethyl-phenoxy)-acetylamino]-2-hydroxy-4-phenyl-butyryl}-4,4-difluoro-3,3-dimethyl-pyrrolidine-2-carboxylic acid 2-methyl-benzylamide]",–,–,< 0.1 nM,407 nM
Cc1ccccc1CNC(=O)[C@@H]1C2CCC(CC2)N1C(=O)[C@@H](O)[C@H](Cc1ccccc1)NC(=O)c1cccc(O)c1C,9.8 nM,≥ 3200 nM,–,–

Compound,"Ki ([1]; Ki, unit inferred)","EC50 [2, 3]","Ki [1, 4]","EC50 [2, 5]"
"Cc1c(O)cccc1C(=O)N[C@@H](Cc1ccccc1)[C@H](O)C(=O)N1CSC(C)(C)[C@H]1C(=O)NCc1cc2ccccc2[nH]1 [Example A61, (R)-3-[(2S,3S)-2-Hydroxy-3-(3-hydroxy-2-methyl-benzoylamino)-4-phenyl-butyryl]-5,5-dimethyl-thiazolidine-4-carboxylic acid (1H-indol-2-ylmethyl)-amide]",–,–,0.99 nM,1060 nM
CC1(C)SCN(C(=O)[C@@H](O)[C@H](Cc2ccccc2)NC(=O)O[C@H]2CCOC2)[C@@H]1C(=O)N[C@@H]1CCOc2ccccc21,3.7 nM,1550 nM,–,–
Cc1ccccc1CNC(=O)[C@H]1N(C(=O)[C@@H](O)[C@H](Cc2ccccc2)NC(=O)OCCCl)CSC1(C)C,0.44 nM,1430 nM,–,–
CC1(C)SCN(C(=O)[C@@H](O)[C@H](Cc2ccccc2)NC(=O)CSc2nc[nH]n2)[C@@H]1C(=O)N[C@@H]1C=CCCC1,6.1 nM,1280 nM,–,–
Cc1ccc(C(=O)N[C@@H](Cc2ccccc2)[C@H](O)C(=O)N2CSC(C)(C)[C@H]2C(=O)NCc2cccs2)c(C)c1O,0.39 nM,332 nM,–,–
"Cc1c(O)cccc1C(=O)N[C@@H](Cc1ccccc1)[C@H](O)C(=O)N1CSC(C)(C)[C@H]1C(=O)N[C@@H]1CCCc2occc21 [Example A47, 3-[2-Hydroxy-3-(3-hydroxy-2-methyl-benzoylamino)-4-phenyl-butyryl]-5,5-dimethyl-thiazolidine-4-carboxylic acid (4,5,6,7-tetrahydro-benzofuran-4-yl)-amide]",–,–,0.27 nM,196 nM
"CCCNC(=O)[C@@H]1CC(F)(F)CN1C(=O)[C@@H](O)[C@H](Cc1ccccc1)NC(=O)COc1c(C)cccc1C [Example C45, 1-{3-[2-(2,6-Dimethyl-phenoxy)-acetylamino]-2-hydroxy-4-phenyl-butyryl}-4,4-difluoro-pyrrolidine-2-carboxylic acid propylamide]",–,–,3.6 nM,1580 nM
Cc1ccccc1CNC(=O)[C@H]1N(C(=O)[C@@H](O)[C@H](Cc2ccccc2)NC(=O)CBr)CSC1(C)C,0.78 nM,≥ 1000 nM,–,–
"C#CCOC(=O)N[C@@H](Cc1ccccc1)[C@H](O)C(=O)N1CSC(C)(C)[C@H]1C(=O)NCc1c(F)cccc1F [Example B51, {1-Benzyl-3-[4-(2,6-difluoro-benzylcarbamoyl)-5,5-dimethyl-thiazolidin-3-yl]-2-hydroxy-3-oxo-propyl}-carbamic acid prop-2-ynyl]",–,–,0.99 nM,> 3200 nM
C=CCNC(=O)[C@H]1N(C(=O)[C@@H](O)[C@H](Cc2ccccc2)NC(=O)[C@@H](NC(=O)c2ccc3ccccc3n2)C(C)C)CSC1(C)C,≤ 0.1 nM,41 nM,–,–
CC(=O)Oc1cccc(C(=O)N[C@@H](CSc2ccccc2)[C@H](O)CN2C[C@H]3CCCC[C@H]3C[C@H]2C(=O)NCc2ccccc2C)c1C,109 nM,672 nM,–,–
CCCC(C)C(=O)NC(Cc1ccccc1)[C@H](O)C(=O)N1CSC(C)(C)C1C(=O)NCc1ccccc1C (some centres unmarked),12.6 nM,≥ 3200 nM,–,–
"CC1(C)SCN(C(=O)[C@@H](O)[C@H](Cc2ccccc2)NC(=O)c2cccc3[nH]ncc23)[C@@H]1C(=O)NCc1ccco1 [Example B37, 1-H-indazole-4-carboxylic acid (1-benzyl-3-{4[(furan-2-ylmethyl)-carbamoyl]-5,5-dimethyl-thiazolidin-3-yl}-2-hydroxy-3-oxo-propyl)-amide]",–,–,7.4 nM,529 nM
Cc1ccccc1CNC(=O)[C@H]1N(C(=O)[C@@H](O)[C@H](Cc2ccccc2)NC(=O)OC(C)(C)C)CSC1(C)C,3 nM,1290 nM,–,–
Cc1ccccc1CNC(=O)[C@H]1N(C(=O)[C@@H](O)[C@H](Cc2ccccc2)NC(=O)C(F)(F)F)CSC1(C)C,17.1 nM,2200 nM,–,–
